The values that follow come from patent US9296710B2, “Bicyclo (3.1.0) hexane-2, 6-dicarboxylic acid derivatives as mGlu2 receptor agonist” (Eli Lilly and Company, priority 2011, dated 2016).

In general, ED50 refers to the midpoint of the dose-response relation. A word on the EC50: it is the concentration that produces a half-maximal response. For orientation: inhibition means how much of the control response was suppressed.

One assay deals with T1, human mGlu2 receptor (Homo sapiens, UniProt Q14416).
T1 construct: expressed in transfected cells; host or cells: AV-12 cells (Syrian hamster fibroblasts), co-transfected with rat EAAT1 and Galpha15
T1 sequence (Q14416 19-872): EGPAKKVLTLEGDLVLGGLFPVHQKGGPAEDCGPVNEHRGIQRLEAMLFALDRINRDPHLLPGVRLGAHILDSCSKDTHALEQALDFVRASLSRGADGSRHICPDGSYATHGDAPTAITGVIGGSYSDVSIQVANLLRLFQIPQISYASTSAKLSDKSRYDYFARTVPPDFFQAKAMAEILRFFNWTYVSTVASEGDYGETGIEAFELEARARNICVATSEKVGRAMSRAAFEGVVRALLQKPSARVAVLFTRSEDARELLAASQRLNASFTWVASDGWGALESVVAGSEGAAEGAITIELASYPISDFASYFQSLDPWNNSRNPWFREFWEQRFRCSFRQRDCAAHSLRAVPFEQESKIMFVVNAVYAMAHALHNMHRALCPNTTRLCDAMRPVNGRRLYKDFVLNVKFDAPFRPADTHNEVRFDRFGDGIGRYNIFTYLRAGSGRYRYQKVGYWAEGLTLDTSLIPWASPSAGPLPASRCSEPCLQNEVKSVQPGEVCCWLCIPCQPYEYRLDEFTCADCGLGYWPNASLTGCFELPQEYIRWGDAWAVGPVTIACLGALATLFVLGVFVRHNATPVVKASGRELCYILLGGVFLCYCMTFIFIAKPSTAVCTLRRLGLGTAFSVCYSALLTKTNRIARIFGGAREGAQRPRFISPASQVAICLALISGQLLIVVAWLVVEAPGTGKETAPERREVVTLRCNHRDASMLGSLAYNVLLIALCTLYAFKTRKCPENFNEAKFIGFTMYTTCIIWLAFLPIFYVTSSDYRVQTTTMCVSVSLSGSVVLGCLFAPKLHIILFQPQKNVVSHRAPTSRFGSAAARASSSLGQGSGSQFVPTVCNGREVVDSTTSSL
The experiment in a line: Human mGlu2 Agonist FLIPR Assay. The assay is classed as cell-based. To be noted: for Emax: percent stimulation relative to maximal glutamate response (100 μM glutamate), read-out: Relative % Efficacy. An excerpt:
AV-12 cell lines, derived from Syrian Hamster fibroblasts and stably expressing the human mGlu2 receptor and co-transfected with the rat glutamate transporter EAAT 1 (Excitatory Amino Acid Transporter 1) and the Gα15 subunit, are used for these studies. The expression of Gα15 allows Gi-coupled receptors to signal through the phospholipase C pathway, resulting in the ability to measure receptor activation by a fluorometric calcium response assay. The cell lines are maintained by culturing in Dulbecco's Modified Eagle's Medium (DMEM) with high glucose and pyridoxine hydrochloride supplemented with 5% dialyzed fetal bovine serum, 1 mM sodium pyruvate, 10 mM HEPES [4-(2-hydroxyethyl)-1-piperazineethanesulfonic acid], 1 mM of L-glutamine, and 5 μg/mL blasticidin (all media are purchased from Invitrogen). Confluent cultures are passaged biweekly using an enzyme-free dissociation solution (Chemicon S-004-B).
Intracellular calcium levels are monitored before and after the addition of compounds using a Fluorometric Imaging Plate Reader (FLIPR®, Molecular Devices). The assay buffer is comprised of Hank's Buffered Salt Solution (HBSS; Sigma) supplemented with 20 mM HEPES. […] The dye solution is removed and replaced with fresh assay buffer (50 μL per well). […] Results are analyzed using PRISM® v4.03 (GraphPad Software). […] Exemplified compounds of the present invention are solubilized as 10 mM stocks in 0.1N NaOH and stored at −20 C. They are diluted through a three-fold dilution series into assay buffer. After taking an initial 5-sec fluorescent read on the FLIPR® instrument, a compound of the present invention is added to the cell plate (50 μL per well). Data are collected every second for the first 30 seconds and then every 3 seconds for a total of 90 seconds in order to detect agonist activity. The maximal response is defined as that induced by ECmax (100 μM glutamate). The compound effect is measured as maximal minus minimal peak heights in relative fluorescent units (RFUs) corrected for basal fluorescence measured in the absence of glutamate. Determinations are carried out using single plates. Agonist effects are quantified as percent stimulation induced by compound alone relative to the maximal glutamate response. All data are calculated as relative EC50 values using a four-parameter logistic curve fitting program (ACTIVITY BASE® v5.3.1.22).

Assay [1] relates to PCP-induced hyperlocomotor activity in mice. The experiment in a line: Reversal of Phencyclidine (PCP)-Induced Hyperlocomotor Activity in Mice. Format: in vivo, mouse. To be noted: Mus musculus, i.p. administration, 30 minutes prior to 7.5 mg/kg PCP. The source says: This assay for Reversal of Phencyclidine (PCP)-Induced Hyperlocomotor Activity in Mice is run substantially as the Reversal of Phencyclidine (PCP)-Induced Hyperlocomotor Activity in Rats assay provided above, using mice instead of rats and with the changes noted below.
Motor activity is monitored by placing individual male, ICR (CD-1), (Harlan, Indianapolis, Ind.) mice in transparent, plastic shoe-box cages of the dimensions 45×25×20 cm, with 0.5 cm depth of wood chips as bedding, and plastic lid on top of the cage. Motor monitors (Kinder Scientific) consist of a rectangular rack of 12 photobeams arranged in an 8×4 formation, (or a high density grouping of 22 in a 15×7 pattern) at a height of 2.5 cm. The shoe box cage is placed inside of these racks, with the racks on a 3 foot high tabletop in an isolated room. A compound of the present invention is dosed (intraperitoneal route, non-prodrug) usually within a range of 0.3-30 mg/kg; though higher doses may be used, 30 minutes prior to a 7.5 mg/kg challenge dose of phencyclidine (PCP). On the test day, mice are placed in the test cage and allowed to acclimate for 45 minutes prior to PCP challenge; mice are monitored for an additional 60 minutes following PCP administration.
Power analyses have determined that 7-8 mice per group are needed to have appropriate statistical power for detecting treatment differences (power=0.8).

In the next assay the target is T2, PepT1 (Homo sapiens, UniProt P46059).
T2 construct: expressed in transfected cells; host or cells: HeLa cells (ATCC), transient transfection with FUGENE6
T2 sequence (P46059 1-708): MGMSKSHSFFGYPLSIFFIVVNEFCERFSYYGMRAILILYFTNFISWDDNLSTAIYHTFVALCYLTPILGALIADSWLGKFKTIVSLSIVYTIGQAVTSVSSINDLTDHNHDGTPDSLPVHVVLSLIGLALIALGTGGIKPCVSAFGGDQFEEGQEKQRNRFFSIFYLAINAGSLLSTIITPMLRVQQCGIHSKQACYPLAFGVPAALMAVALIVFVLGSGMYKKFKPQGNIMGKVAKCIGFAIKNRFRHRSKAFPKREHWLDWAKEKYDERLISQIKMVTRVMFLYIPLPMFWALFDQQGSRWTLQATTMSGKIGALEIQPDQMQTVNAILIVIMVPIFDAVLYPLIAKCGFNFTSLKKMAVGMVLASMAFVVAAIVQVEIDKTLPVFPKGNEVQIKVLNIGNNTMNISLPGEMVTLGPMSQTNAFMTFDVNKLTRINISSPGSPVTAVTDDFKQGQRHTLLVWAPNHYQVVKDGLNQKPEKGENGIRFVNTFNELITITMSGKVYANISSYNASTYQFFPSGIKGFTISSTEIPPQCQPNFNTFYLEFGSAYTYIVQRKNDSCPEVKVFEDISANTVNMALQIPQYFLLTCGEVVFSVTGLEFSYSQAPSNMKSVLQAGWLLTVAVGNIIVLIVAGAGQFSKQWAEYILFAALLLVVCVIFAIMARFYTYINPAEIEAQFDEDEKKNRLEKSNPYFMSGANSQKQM
As to the kind of experiment: In Vitro PepT1 GlySar Inhibition Screen. The assay is classed as cell-based. To be noted: for inhibition at 5000 µM: prodrug at 5 mM, pH 6.0, PepT1 transiently transfected HeLa cells, 5 μM [14C]Gly-Sar and 20 μM cold Gly-Sar, read-out: Mean GlySar Uptake Inhibition %; for GlySar uptake inhibition, mean values ± standard deviation (controls): negative and positive controls run in parallel, n=18-19. The method, then:
PepT1 assays are established to examine the ability of the amino acid prodrug compounds to interact with the intestinal absorption transporter PepT1.
HeLa cells, derived from human cancer cells, (American Type Culture Collection) are grown in Hyclone Medium (Invitrogen, Cat# SH30243) containing 10% fetal bovine serum (FBS), 0.1 mM non essential amino acids (NEAA), and 100 units/mL penicillin with 100 μg/mL streptomycin at 37° C. in a 5% CO2 humidified atmosphere. The cell line is used for up to 40 passages and then discarded. Frozen cells in 1 mL vials are thawed in water bath for 1-2 minutes and added to 5 mL of cell medium at 37° C. Each of the T-flasks is provided with 8.5 mL of the fresh medium and 1.5 mL of the cell stock. Cells are passaged twice during a week. […] Each new flask receives a combination of 8.5 mL of fresh medium and 1.5 mL of cell stock, in order to obtain 1:6 cell dilution. Cells are incubated at 37° C., until ready for the uptake study.
Cells that are 70-80% confluent in the T-flasks are plated 1 day prior to the transfection procedure. The flask with the cell stock is treated with PBS-EDTA and trypsin to detach the cells, and transfection medium is used from this point. Transfection medium consists of Dulbecco's Modified Eagle Medium (DMEM)+NEAA. To each well, 0.5 mL of the cell mixture is added (1.3×10^5 is the desired cell concentration) and the cells are incubated at 37° C. overnight. Twenty four hours before the assay, cells are transfected with PEPT1. Transfection mixture is prepared by mixing 600 μL of serum free transfection medium, 18 μL of FUGENE6® (Roche Diagnostics), and 11 μg of the PepT1 DNA. The transfection reagent-DNA complex is incubated for 20 minutes and 24 μL of the reagent-DNA complex is added to each well.
Inhibition of PEPT1-mediated [glycyl-1-2-^14C]Glyclysarcosine (GlySar) uptake activity is measured in the cells cultured in the 24-well plates 24-hours post transfection as previously published (Zhang et al. 2004. J. Pharm. Exper Ther. 310:437-445). To measure the ability of a compound of the present invention to inhibit the uptake of [^14C]Gly-Sar, prodrug compounds are incubated with 80 to 90% confluent PepT1 transiently transfected HeLa cells at 5 mM in pH 6.0 uptake medium in the presence of 5 μM [^14C]Gly-Sar (Moravek Biochemicals) and 20 μM cold Gly-Sar. Uptake media consists of 140 mM NaCl, 5.4 mM KCl, 1.8 mM CaCl2, 0.8 mM MgSO4, 5 mM Glucose, 25 mM tris(hydroxymethyl)aminomethane buffer (TRIS). The solution is then brought to pH 6.0 using 2-(N-morpholino)ethanesulfonic acid. The incubation volume is 500 μL and is performed at room temperature for 3 minutes. To stop the uptake at the conclusion of the incubation time, the uptake media is aspirated off of the cell monolayer and 500 μL of ice cold PBS added to the well. The cells are washed 3 times with 500 μL of room temperature PBS without Ca^+2 and Mg^+2. The cells are then lysed with 300 μL of 1% TRITON® X100 H2O solution. A 200 μL aliquot is removed and radioactivity is determined by liquid scintillation counting to measure the [^14C]Gly-Sar present in each of the incubation wells. A no inhibitor control is established and the percent inhibition of each prodrug is calculated with respect to this control.

Counter-ions that a name gives are not always drawn.

In the case of `N[C@@]1(C(=O)O)C[C@H](Sc2n[nH]c(C(F)(F)F)n2)[C@H]2[C@H](C(=O)O)[C@H]21` [Example 12, (1R,2S,4S,5R,6R)-2-Amino-4-[[5-(trifluoromethyl)-1H-1,2,4-triazol-3-yl]sulfanyl]bicyclo[3.1.0] hexane-2,6-dicarboxylic acid hydrochloride], the Emax on human mGlu2 receptor was 92.1%. `Cl.N[C@@]1(C(=O)O)C[C@@H](Sc2nnc(C(F)(F)F)[nH]2)[C@H]2[C@H](C(=O)O)[C@H]21` [Example 2, (1R,2S,4R,5R,6R)-2-Amino-4-(5-trifluoromethyl-1H-[1,2,4]triazol-3-ylsulfanyl)-bicyclo[3.1.0]hexane-2,6-dicarboxylic acid hydrochloride]: the Emax on human mGlu2 receptor was found to be 78.5%. The ED50 in assay [1] was found to be 14.4 mg/kg. Consider `Cl.N[C@@]1(C(=O)O)C[C@@H](Sc2cn[nH]n2)[C@H]2[C@H](C(=O)O)[C@H]21` [Example 1, (1R,2S,4R,5R,6R)-2-Amino-4-(2H-[1,2,3]triazol-4-ylsulfanyl)-bicyclo[3.1.0]hexane-2,6-dicarboxylic acid hydrochloride], for which the EC50 on human mGlu2 receptor (hMGLUR2 FLIPR assay, AV-12 cells expressing human mGlu2, calcium response, read-out: Relative EC50) amounted to 0.046 µM. Moreover, the Emax on human mGlu2 receptor was found to be 92.6%. The ED50 in assay [1] is 18.4 mg/kg. In the case of `NCC(=O)N[C@@]1(C(=O)O)C[C@H](Sc2nnc[nH]2)[C@H]2[C@H](C(=O)O)[C@H]21` [Example 22, (1R,2S,4S,5R,6R)-2-[(-2-Aminoacetyl)amino]-4-(4H-1,2,4-triazol-3-ylsulfanyl)bicyclo[3.1.0]hexane-2,6-dicarboxylic acid hydrochloride], at PepT1, the inhibition at 5000 µM was determined as 46.7%.

For the molecule `CC1=C(C(=O)O)N2C(=O)[C@@H](NC(=O)[C@H](N)c3ccc(O)cc3)[C@H]2SC1` [Cefadroxil, reference compound], the “GlySar uptake inhibition, mean values ± standard deviation (controls)” value at PepT1 was 53.2±13.2%. The same measure, in the same setting: in the case of `NCC(=O)O` [Glycine, reference compound] it was 10.1±9.5%. With `CC(C)C[C@H](N)C(=O)N[C@@]1(C(=O)O)C[C@H](Sc2nnc[nH]2)[C@H]2[C@H](C(=O)O)[C@H]21` [Example 24, (1R,2S,4S,5R,6R)-2-(L-leucylamino)-4-(4H-1,2,4-triazol-3-ylsulfanyl)bicyclo [3.1.0]hexane-2,6-dicarboxylic acid hydrochloride], at PepT1, the inhibition at 5000 µM amounted to 47.1%. For `C[C@H](N)C(=O)N[C@@]1(C(=O)O)C[C@@H](Sc2nnc(C(F)(F)F)[nH]2)[C@H]2[C@H](C(=O)O)[C@H]21` [Example 16, (1R,2S,4R,5R,6R)-2-[[(2S)-2-Aminopropanoyl]amino-4-[[5-(trifluoromethyl)-1H-1,2,4-triazol-3-yl]thio]bicyclo[3.1.0]hexane-2,6-dicarboxylic acid hydrochloride], at PepT1, the inhibition at 5000 µM turned out to be 53.9%.
